Experiments:
[1] = toxicity (24 hours observation); conditions: in vivo, mouse, oral, suspension in olive oil or gum arabic
Experimental: (§1) Those compounds of the formula I wherein R is methyl, ethyl and isopropyl and the structurally most closely related compound disclosed in the prior art, namely 1-[4-(4-fluorophenyl)-4-oxobutyl]-4-benzamidopiperidine disclosed in British patent specification No. 1,345,872, were tested for adrenaline-antagonistic activity, inhibition of locomotion, inhibition of exploration and toxicity by standard pharmacological test methods, and in each case the median effective dose (ED50) or the median lethal dose (LD50), respectively, were calculated graphically from dose-activity graphs. Albino mice (NMRI) having a body weight of 20-25 gm were used as the test animals, 10 animals per dose and untreated controls. The test compounds were administered orally in suspension in olive oil or gum arabic.
4. The toxicity was determined over an observation period of 24 hours. The LD50 was calculated by the method J.T. Litchfield and F. Wilcoxon, J. Pharm. Exp. Ther. 96, 99 (1949).

[2] = inhibition of exploration (Planche-a-Trous situation); format: in vivo, Mouse (albino, NMRI); conditions: mouse, oral, suspension in olive oil or gum arabic; 50% decrease of exploration
Experimental: as §1
2. The inhibiting effect on exploration was determined by the method of J.R. Borssin et al, Therapie 19, 571 (1964). The ED50 is the dose which produces a 50% decrease of exploration in the Planche-a-Trous situation.

[3] = inhibition of locomotion (open field test); format: in vivo, Mouse (albino, NMRI); conditions: mouse, oral, suspension in olive oil or gum arabic; 50% attenuation of locomotion
Experimental: as §1
3. The inhibiting effect on locomotion was determined by the method of P.A.J. Janssen et al, Psychopharmacologia 1, 389 (1960). The ED50 is the dose which produces a 50% attenuation of locomotion in the open field test.

adrenaline (epinephrine) = experiment: adrenaline-antagonistic activity (protection against a lethal dose of adrenaline); format: in vivo, Mouse (albino, NMRI); conditions: mouse, oral, suspension in olive oil or gum arabic; 50% protection against lethal dose of adrenaline; read-out: Adrenaline-antagonism (ED50)
Experimental: as §1
1. The adrenaline-antagonistic activity was determined by the method of P.A.J. Janssen et al, Arzneimittelforschung (Drug Research) 13, 203 (1963). […] The ED50 is the dose which produces a 50% protection against a lethal dose of adrenaline (epinephrine).

SMILES	LD50 at 24 h [1] [mg/kg]	ED50 [2] [mg/kg]	ED50 [3] [mg/kg]	ED50 (adrenaline (epinephrine)) [mg/kg]
CC(=O)NC1CCN(CCCC(=O)c2ccc(F)cc2)CC1 [Example 1]	1050	8	4	0.06
CC(C)C(=O)NC1CCN(CCCC(=O)c2ccc(F)cc2)CC1 [Example 4, N-[3'-(p-fluoro-benzoyl)-n-propyl]-4-(isobutyryl-amino) -piperidine]	1850	9	10	0.58
O=C(CCCN1CCC(NC(=O)c2ccccc2)CC1)c1ccc(F)cc1 [C6 H5, 1-[4-(4-fluorophenyl)-4-oxobutyl]-4-benzamidopiperidine, reference compound]	300	45	135	3.3
CCC(=O)NC1CCN(CCCC(=O)c2ccc(F)cc2)CC1 [Example 2, N-[3'-(p-fluoro-benzoyl)-n-propyl]-4-(propionyl-amino) -piperidine]	1160	4.4	6	0.1
